Measured values taken from patent publication US9340819B2, “Method for detecting the presence of carbapenemase-producing bacteria in a sample” (priority 2011, dated 2016).
≈ marks a conversion by molar mass, not a printed value.

Key:
[1] = tested on: P. stuartii; assay: MIC of carbapenem by Etest (Example 2); type: cell-based, Providencia stuartii; details: P. stuartii NDM-1, n=1
Experimental: (§1) All strains had previously been characterized for their β-lactamase content at the molecular level. Minimum inhibitory concentration of carbapenem were determined using the Etest® (AB bioMérieux, Solna, Sweden) and results were recorded according to US guidelines (CLSI), as updated in 2011.

[2] = tested on: E. coli; assay: MIC of carbapenem by Etest (Example 2); type: cell-based, Escherichia coli
Experimental: as §1

[3] = tested on: P. mirabilis; assay: MIC by Etest on Mueller-Hinton agar (Example 1); type: cell-based; details: Proteus mirabilis, plasmid mediated cephalosporinase ACC-1
Experimental: (§2) Prior to performing the method of the invention, susceptibility testings were performed by determining Minimum Inhibitory Concentration (MIC) values by the Etest® (AB bioMérieux; Solna, Sweden) on Mueller-Hinton agar plates at 37° C. and results of susceptibility testing were recorded according to the Clinical and Laboratory Standards Institute (CLSI) guidelines as modified in June 2010 (18). The breakpoints for imipenem are S≦1 μg/ml (susceptibility) and R≧4 μg/ml (resistant). As for those for ertapenem, they are S≦0.25 μg/ml and R≧1 μg/ml (see Tables 1 and 2).

[4] = tested on: C. freundii; assay: MIC by Etest on Mueller-Hinton agar (Example 1); type: cell-based; details: Citrobacter freundii; C. freundii STE (13); NDM-1 + OXA-1 + OXA-9 + OXA-10 + CTX-M-15 + TEM-1
Experimental: as §2

[5] = tested on: K. pneumoniae; assay: MIC by Etest on Mueller-Hinton agar (Example 1); type: cell-based; details: Klebsiella pneumoniae
Experimental: as §2

[6] = tested on: P. stuartii; assay: MIC by Etest on Mueller-Hinton agar (Example 1); type: cell-based; details: Providencia stuartii, NDM-1 + OXA-1 + CMY-6
Experimental: as §2

[7] = tested on: E. cloacae; assay: MIC by Etest on Mueller-Hinton agar (Example 1); type: cell-based; details: Enterobacter cloacae
Experimental: as §2

C[C@@H](O)[C@H]1C(=O)N2C(C(=O)O)=C(SCCN=CN)C[C@H]12 [IMP, imipenem]
MICs range [1]: 12 mg/L | MICs range ([2]; E. coli IMP-1, n=2): 0.5 mg/L | MICs range ([2]; E. coli IMP-8, n=1): 6 mg/L | MICs range ([2]; E. coli KPC-2, n=5): 0.5 to 4 mg/L | MICs range ([2]; E. coli NDM-1, n=7): 1 to 16 mg/L | MICs range ([2]; E. coli OXA-48, n=6): 0.38 to 3 mg/L | MICs range ([2]; E. coli VIM-1, n=2): 1.5 to 3 mg/L | MICs range ([2]; E. coli VIM-2, n=2): 2 to 4 mg/L | MICs range ([2]; E. coli VIM-19, n=1): 8 mg/L | MICs range ([2]; ESBLs, E. coli CTX-M-1, n=1): 0.12 mg/L | MICs range ([2]; ESBLs, E. coli CTX-M-3, n=1): 0.12 mg/L | MICs range ([2]; ESBLs, E. coli CTX-M-14, n=2): 0.12 mg/L | MICs range ([2]; ESBLs, E. coli CTX-M-15, n=2): 0.12 mg/L | MICs range ([2]; ESBLs, E. coli VEB-1, n=1): 0.12 to 0.25 mg/L | MICs range ([2]; Plasmid mediated AmpC or chromosomal AmpC + decreased membrane permeability, E. coli ACC-1, n=1): 0.12 mg/L | MICs range ([2]; Plasmid mediated AmpC or chromosomal AmpC + decreased membrane permeability, E. coli CMY-2, n=1): 0.12 mg/L | MICs range ([2]; Plasmid mediated AmpC or chromosomal AmpC + decreased membrane permeability, E. coli CMY-10, n=1): 0.12 mg/L | MICs range ([2]; Plasmid mediated AmpC or chromosomal AmpC + decreased membrane permeability, E. coli DHA-1, n=1): 0.12 mg/L | MICs range ([2]; Plasmid mediated AmpC or chromosomal AmpC + decreased membrane permeability, E. coli Extended spectrum cephalosporinase, n=1): 0.12 mg/L | MICs range ([2]; Plasmid mediated AmpC or chromosomal AmpC + decreased membrane permeability, E. coli Overexpressed cephalosporinase, n=1): 16 mg/L | MIC [3]: 0.19 µg/mL (≈ 0.635 µM) | MIC [4]: > 32 µg/mL | MIC ([5]; CIP53153, K. pneumoniae CIP53153 (30), wild-type): 0.19 µg/mL (≈ 0.635 µM) | MIC ([5]; K. pneumoniae 1 OMA (11), NDM-1 + CTX-M-15 + OXA-1 + OXA-9): > 32 µg/mL | MIC ([5]; K. pneumoniae 2 OMA, NDM-1 + OXA-1): > 32 µg/mL | MIC ([5]; K. pneumoniae 7 AFR, NDM-1 + OXA-1 + CTX-M-15 + CMY-6 + TEM-1): > 32 µg/mL | MIC ([5]; K. pneumoniae 6299 (19), ESBL OXA-163): 0.19 µg/mL (≈ 0.635 µM) | MIC ([5]; K. pneumoniae 6759 GEN, NDM-1 + CTX-M-15 + OXA-1 + OXA-9 + OXA-10 + CMY16): 6 µg/mL | MIC ([5]; K. pneumoniae (16), ESBL CTX-M-15): 0.19 µg/mL (≈ 0.635 µM) | MIC ([5]; K. pneumoniae BEL, OXA-48): 1 µg/mL (≈ 3.34 µM) | MIC ([5]; K. pneumoniae BER (28), porin deficiency associated with ESBL, TEM): 0.5 µg/mL (≈ 1.67 µM) | MIC ([5]; K. pneumoniae BIC (4), OXA-48): 0.5 µg/mL (≈ 1.67 µM) | MIC ([5]; K. pneumoniae CHA (5), OXA-48 + TEM-1): 0.5 µg/mL | MIC ([5]; K. pneumoniae COO (27), porin deficiency associated with ESBL, CTX-M-15 + SHV-28): 0.5 µg/mL | MIC ([5]; K. pneumoniae DIN, NDM-1): 8 µg/mL (≈ 26.7 µM) | MIC ([5]; K. pneumoniae EGY, OXA-48 + CTX-M-15): 2 µg/mL | MIC ([5]; K. pneumoniae H1516-6 COL (3), KPC-2 + TEM-1 + CTXM-15): 2 µg/mL | MIC ([5]; K. pneumoniae HOL, OXA-181 + CTX-M-15): 0.5 µg/mL | MIC ([5]; K. pneumoniae IND, NDM-1 + OXA-1 + CTX-M-15): 6 µg/mL | MIC ([5]; K. pneumoniae MAD (15), IMP-13): 0.5 µg/mL (≈ 1.67 µM) | MIC ([5]; K. pneumoniae MAD, VIM-1 + CTX-M-3): > 32 µg/mL | MIC ([5]; K. pneumoniae OMA (8), OXA-181 + CTXM-15 + OXA-1): 0.5 µg/mL | MIC ([5]; K. pneumoniae RAM, OXA-48): 1 µg/mL (≈ 3.34 µM) | MIC ([5]; K. pneumoniae SAB, NDM-1): 2 µg/mL (≈ 6.68 µM) | MIC ([5]; K. pneumoniae UK (10), NDM-1 + CTX-M-15 + CMY-4 + OXA-1): 8 µg/mL | MIC [6]: > 32 µg/mL | MIC ([7]; E. cloacae 2185, ESBL OXA-163): 0.19 µg/mL (≈ 0.635 µM) | MIC ([7]; E. cloacae (1), KPC-2): 4 µg/mL (≈ 13.4 µM)
